Data published in patent US11896571B2, “Methods for increasing oral osteogenesis using lipoxin A4 (LXA4) and its analogs” (Forsyth Dental Infirmary for Children, priority 2013, dated 2024).

Experiments:
[1] = system: periodontal disease and bone loss (intrabony defects around second and fourth premolars); assay: Minipig periodontal disease model: periodontal flap surgery with a single application, μCT and conventional radiographic imaging; assay type: in vivo, minipigs (Hanford)
Procedure: The Institutional Animal Care Committee at the Forsyth Institute and PARF, Inc reviewed and approved the animal protocol prior any study activities. Two adult (18-24 months old) female minipigs (Hanford) were purchased and acclimatized for at least 7 days before any procedures. All surgical and follow up procedures and housing throughout the study duration (about 6 months including disease induction period) were performed at an animal and surgical facility at PARF, Inc.
Anesthesia and surgical procedures were conducted as described in Hasturk H, Kantarci A, Ghattas M, Schmidt M, Giordano R, Ashman A, Diekwisch T, Van Dyke T E. The Use of Light/Chemically-Hardened Poly-Methyl-Methacrylate, Poly-Hydroxyl-Ethyl-Methacrylate and Calcium Hydroxide Graft Material in Combination with Polyanhydride around Implants in Minipigs: Part I: Immediate Stability and Function. J Periodontol. 2011 September; 82(9):1339-1352, which is incorporated by reference in its entirety herein. Briefly, minipigs were premedicated with Telazol (4-6 mg/kg IM) and xylazine (2.2 mg/kg IM) and were maintained by 3-4% isoflurane for induction and 0.5-2% isoflurane for maintenance. Each pig was anesthetized for approximately two hours during ligature placement and intraoral photographs. Endotracheal intubation was performed whenever the pig was fully anesthetized. Periodontal disease and bone loss were induced by creating intrabony defects using burs and ligatures in all four quadrants around the same teeth (second and fourth premolars) (FIG. 2A). After ligature placement, animals were fed with soft diet to stimulate plaque accumulation around ligatures for 6 weeks.
Oral examination, including digital photographs, were repeated at 2 and 4 weeks and ligatures were removed at 6 weeks. The sites were left untreated for about 38 days to stabilize the periodontal disease and bone loss obtained and to eliminate the self healing aspect of the bone defects. Accordingly, the defects were chronically created for the baseline treatments (FIG. 2B).
At Day 0 (baseline), the minipigs were anesthetized as described above. […]

[2] = system: acute inflammation (PMN infiltration, pro-inflammatory cytokines); details: mouse model of acute inflammation, cited from earlier work
[3] = system: periodontitis and inflammation-induced bone destruction; details: rabbit periodontitis; cited from earlier work

Row | Compound | number of applications after which oral osteogenesis effects were observed ([1]; applied to debrided chronic periodontal lesion at periodontal flap surgery) | bone regeneration by conventional radiographic imaging of teeth ([1]; surgery plus 9,12 benzo LXA4 vs surgery alone (FIG. 3)) | bone osteogenesis by micro-computed tomography (μCT) imaging of teeth ([1]; surgery plus 9,12 benzo LXA4 vs surgery alone, 0.1-1 μM, light gel, applied at flap surgery, bone covering root notches (FIG. 3)) | levels of pro-inflammatory cytokines ([2]; in vivo) | polymorphonuclear leukocyte (PMN) infiltration ([2]; in vivo) | anti-inflammatory properties [2] | bone loss [3] | inflammation [3] | tissue regeneration [3]
1 | 9,12 benzo-LXA4 [9,12, benzo LXA4] | observed after only a single application | regenerated bone to essentially pre-disease levels | induction of bone osteogenesis following LXA4 treatment was observed | significantly reducing | significantly reducing | potent anti-inflammatory properties | – | – | –
2 | CC[C@@H](O)/C=C/C=C\C[C@@H](O)/C=C/C=C/C=C\[C@@H](O)CCCC(=O)O [resolvin E1 (RVE1), resolvin E1] | – | – | – | – | – | – | protects from bone loss | reduces inflammation | stimulates tissue regeneration
